Source: publication PMC11791039, “A split intein and split luciferase-coupled system for detecting protein-protein interactions” (Molecular Systems Biology, 2024)
“And” between values parts separate entries of the source, which are not always exact repeats. Equal values may be shown once.

What was measured:
Format in all cases: cell-based
[1] = molecular target: T1, EGFR(WT)/SHC1 (Homo sapiens, UniProt P00533); assay: SIMPL2 assay EGFR(WT)/SHC1; conditions: for normalized SIMPL2 signal EGFR/SHC1 (Fig. 3A source data): 16 h, replicates 1-3
T1 construct: β10-IN (tNLuc β10 peptide + GP41-1 split intein N fragment) (C); V5; expressed in transfected cells

[2] = molecular target: T2, HRAS/RBD (Homo sapiens, UniProt P01112); assay: SIMPL2 assay HRAS/RBD; conditions: 16 h; for normalized SIMPL2 signal HRAS/RBD (Fig. 3A source data): replicates 1-3
T2 construct: IC-β9 (GP41-1 split intein C fragment + tNLuc β9 peptide) (N); FLAG; expressed in transfected cells

[3] = molecular target: T3, KRAS(G12C)/RBD (Homo sapiens, UniProt P01116, G12C); assay: SIMPL2 assay KRAS(G12C)/RBD; conditions: for SIMPL2 signal, KRAS(G12C)/RBD (Fig. 4A): replicates 1-4
T3 construct: IC-β9 (GP41-1 split intein C fragment + tNLuc β9 peptide) (N); FLAG; expressed in transfected cells

[4] = molecular target: T4, MDM2/MDM4 interaction (Homo sapiens, UniProt O15151+Q00987); assay: SIMPL2 assay MDM2/MDM4; conditions: for SIMPL2 signal, MDM2/MDM4 (Fig. 4A): replicates 1-4
T4 construct: β10-IN (tNLuc β10 peptide + GP41-1 split intein N fragment) (C); V5; IC-β9 (GP41-1 split intein C fragment + tNLuc β9 peptide) (N); FLAG; expressed in transfected cells
Experimental: We next tested the system with molecular glues, which are small molecule compounds that induce target protein interaction. […] To clarify, the two protein molecules are anchored together through a pair of dimerized RO-5963 molecules. […] Therefore, its binding kinetics display a monophasic change.
Figure 4 Evaluation of SIMPL2 as a drug discovery tool using molecular glue and PROTACs. […] Samples were measured and normalized as described in Materials and Methods. […] The cells were then subjected to SIMPL2 luciferase measurement, and the raw values are plotted.
Stable cells of target protein pair were created using Cas9 CRISPR. To characterize PPI modulators, the cells were seeded in 384 well plate (10,000 cells/well) and incubated for 5 h. […] Average signal of wells without either deoxycycline or compound treatment was used as blank or ‘floor’ signal (SF). The average signal of wells with deoxycycline treatment but without compound treatment was used as maximal interaction or ‘ceiling’ (SC). SIMPL2 reading of each sample (Ssample) was normalized according to the formula S^*sample = (Ssample– SF)/(SC– SF) x 100%, in which S^*sample stands for normalized signal. The normalized data of inhibitor experiments were fitted into a four-parameter inhibitor-response model.

T1 sequence (P00533 25-1210): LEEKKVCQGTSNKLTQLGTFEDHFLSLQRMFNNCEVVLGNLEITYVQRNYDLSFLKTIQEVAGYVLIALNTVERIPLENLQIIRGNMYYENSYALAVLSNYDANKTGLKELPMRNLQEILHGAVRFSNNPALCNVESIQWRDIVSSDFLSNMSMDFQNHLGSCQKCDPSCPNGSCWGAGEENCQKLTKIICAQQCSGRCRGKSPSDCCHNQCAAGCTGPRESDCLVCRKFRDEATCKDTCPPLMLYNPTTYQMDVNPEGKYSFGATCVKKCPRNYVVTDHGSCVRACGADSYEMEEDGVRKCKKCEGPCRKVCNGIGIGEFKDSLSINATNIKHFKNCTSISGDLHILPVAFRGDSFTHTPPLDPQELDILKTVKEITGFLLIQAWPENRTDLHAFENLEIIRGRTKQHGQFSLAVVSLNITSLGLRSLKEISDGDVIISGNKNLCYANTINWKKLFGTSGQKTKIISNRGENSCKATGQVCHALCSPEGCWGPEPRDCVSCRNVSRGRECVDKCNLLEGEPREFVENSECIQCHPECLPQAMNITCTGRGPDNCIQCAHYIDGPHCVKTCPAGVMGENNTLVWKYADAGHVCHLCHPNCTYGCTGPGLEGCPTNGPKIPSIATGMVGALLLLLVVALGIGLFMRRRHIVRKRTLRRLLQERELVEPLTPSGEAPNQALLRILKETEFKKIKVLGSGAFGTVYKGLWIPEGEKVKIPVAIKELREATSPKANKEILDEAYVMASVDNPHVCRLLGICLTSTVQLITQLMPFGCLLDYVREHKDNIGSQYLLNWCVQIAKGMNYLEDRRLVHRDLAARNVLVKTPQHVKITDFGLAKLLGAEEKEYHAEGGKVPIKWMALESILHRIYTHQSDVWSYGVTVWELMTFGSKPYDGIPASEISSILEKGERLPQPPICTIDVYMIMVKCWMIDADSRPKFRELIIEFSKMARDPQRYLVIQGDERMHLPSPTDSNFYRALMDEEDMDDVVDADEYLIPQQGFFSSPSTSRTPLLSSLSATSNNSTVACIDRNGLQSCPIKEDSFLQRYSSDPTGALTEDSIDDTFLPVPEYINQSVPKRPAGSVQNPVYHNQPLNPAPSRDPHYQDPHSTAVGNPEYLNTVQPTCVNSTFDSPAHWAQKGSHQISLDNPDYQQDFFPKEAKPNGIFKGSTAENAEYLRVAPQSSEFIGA
T2 sequence (P01112 whole entry, the tested form may be a part): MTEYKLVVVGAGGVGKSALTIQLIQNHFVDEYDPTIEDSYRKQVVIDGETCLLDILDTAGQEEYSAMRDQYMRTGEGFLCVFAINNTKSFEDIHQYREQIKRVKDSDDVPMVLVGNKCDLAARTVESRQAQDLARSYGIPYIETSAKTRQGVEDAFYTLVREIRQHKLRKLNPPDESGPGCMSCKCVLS
T4 sequence (Q00987 whole entry, the tested form may be a part): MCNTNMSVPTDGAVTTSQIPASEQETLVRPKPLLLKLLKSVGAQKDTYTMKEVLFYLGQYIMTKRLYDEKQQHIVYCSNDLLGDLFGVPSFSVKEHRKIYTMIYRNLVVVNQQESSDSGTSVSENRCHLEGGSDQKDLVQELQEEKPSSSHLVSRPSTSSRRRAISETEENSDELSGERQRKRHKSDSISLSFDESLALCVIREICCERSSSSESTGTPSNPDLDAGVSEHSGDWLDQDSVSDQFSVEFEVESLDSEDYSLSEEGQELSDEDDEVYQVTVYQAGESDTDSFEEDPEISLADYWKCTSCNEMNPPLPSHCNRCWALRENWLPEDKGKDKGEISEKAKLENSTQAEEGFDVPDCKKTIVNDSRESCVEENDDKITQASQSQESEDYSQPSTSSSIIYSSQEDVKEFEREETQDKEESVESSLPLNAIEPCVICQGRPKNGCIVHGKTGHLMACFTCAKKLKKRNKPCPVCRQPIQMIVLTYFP
T4 sequence (O15151 whole entry, the tested form may be a part): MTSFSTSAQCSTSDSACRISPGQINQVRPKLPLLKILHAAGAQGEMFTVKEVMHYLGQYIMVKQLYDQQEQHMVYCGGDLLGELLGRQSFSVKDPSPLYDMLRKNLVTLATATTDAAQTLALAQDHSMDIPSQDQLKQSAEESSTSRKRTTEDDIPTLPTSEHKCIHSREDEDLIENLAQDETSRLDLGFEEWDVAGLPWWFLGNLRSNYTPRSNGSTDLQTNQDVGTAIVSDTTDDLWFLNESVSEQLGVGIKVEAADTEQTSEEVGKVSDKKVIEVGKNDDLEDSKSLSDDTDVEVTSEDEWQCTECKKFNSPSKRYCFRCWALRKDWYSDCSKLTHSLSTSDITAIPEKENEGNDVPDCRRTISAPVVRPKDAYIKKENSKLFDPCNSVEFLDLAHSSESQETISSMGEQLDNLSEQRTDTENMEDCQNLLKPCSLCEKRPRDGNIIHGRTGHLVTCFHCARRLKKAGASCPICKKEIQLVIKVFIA

## C=CC(=O)N1CCN(c2nc(=O)n(-c3c(C)ccnc3C(C)C)c3nc(-c4c(O)cccc4F)c(F)cc23)[C@@H](C)C1 [sotorasib, Sotorasib]
[1]; AMG510 0.013717 uM
  normalized SIMPL2 signal EGFR/SHC1 (Fig. 3A source data): 102.175% and 103.017% and 94.8079%
[1]; AMG510 0.041152 uM
  normalized SIMPL2 signal EGFR/SHC1 (Fig. 3A source data): 78.9251% and 82.2027% and 70.7463%
[1]; AMG510 0.37037 uM
  normalized SIMPL2 signal EGFR/SHC1 (Fig. 3A source data): 78.0061% and 80.6558% and 79.5224%
[1]; AMG510 1.11111 uM
  normalized SIMPL2 signal EGFR/SHC1 (Fig. 3A source data): 94.2258% and 88.5129% and 91.668%
[1]; AMG510 3.33333 uM
  normalized SIMPL2 signal EGFR/SHC1 (Fig. 3A source data): 78.7566% and 76.4592% and 70.5625%
[1]; AMG510 10 uM
  normalized SIMPL2 signal EGFR/SHC1 (Fig. 3A source data): 53.0256% and 58.9069% and 63.3333%
[1]; peer review file, authors confirm for EGFR/SHC1 only
  inhibition of EGFR/SHC1 signal at high sotorasib concentrations (reviewer's reading of Fig. 3A): 40-50%
[2]; AMG510 0.013717 uM
  normalized SIMPL2 signal HRAS/RBD (Fig. 3A source data): 95.6644% and 96.1454% and 108.19%
[2]; AMG510 0.041152 uM
  normalized SIMPL2 signal HRAS/RBD (Fig. 3A source data): 82.7154% and 124.68% and 97.6847%
[2]; AMG510 0.37037 uM
  normalized SIMPL2 signal HRAS/RBD (Fig. 3A source data): 80.291% and 76.1158% and 82.6769%
[2]; AMG510 1.11111 uM
  normalized SIMPL2 signal HRAS/RBD (Fig. 3A source data): 79.0981% and 97.1459% and 96.2801%
[2]; AMG510 3.33333 uM
  normalized SIMPL2 signal HRAS/RBD (Fig. 3A source data): 91.6238% and 112.808% and 96.8766%
[2]; AMG510 10 uM
  normalized SIMPL2 signal HRAS/RBD (Fig. 3A source data): 106.247% and 100.629% and 127.854%
[2]; control cells
  inhibition of HRAS/RBD interaction signal: no significant inhibition

## RO-5963
[3]; RO-5963 0.013717 uM
  SIMPL2 signal, KRAS(G12C)/RBD (Fig. 4A): 109.968 and 129.491
[3]; RO-5963 0.041152 uM
  SIMPL2 signal, KRAS(G12C)/RBD (Fig. 4A): 115.427 and 110.7 and 113.906 and 96.9775
[3]; RO-5963 0.37037 uM
  SIMPL2 signal, KRAS(G12C)/RBD (Fig. 4A): 127.273 and 113.795 and 114.951
[3]; RO-5963 1.11111 uM
  SIMPL2 signal, KRAS(G12C)/RBD (Fig. 4A): 136.524 and 105.719 and 127.623 and 137.333
[3]; RO-5963 3.33333 uM
  SIMPL2 signal, KRAS(G12C)/RBD (Fig. 4A): 110.236 and 106.312 and 130.946
[3]; RO-5963 10 uM
  SIMPL2 signal, KRAS(G12C)/RBD (Fig. 4A): 136.758 and 112.554 and 138.094 and 146.423
[3]; doxycycline + compound 16 h, tested concentration range
  effect on KRAS(G12C)/RBD control interaction signal: not affected
[4]; 16 h with doxycycline
  concentration above which MDM2/MDM4 interaction declines (hook effect): above 3 μM
  concentration above which MDM2/MDM4 interaction was observed: above 0.3 μM
  concentration of peak MDM2/MDM4 interaction: 3 µM
[4]; RO-5963 0.013717 uM
  SIMPL2 signal, MDM2/MDM4 (Fig. 4A): 98.5373 and 90.6113 and 85.0033 and 102.575
[4]; RO-5963 0.041152 uM
  SIMPL2 signal, MDM2/MDM4 (Fig. 4A): 93.004 and 86.0501 and 89.041 and 96.2193
[4]; RO-5963 0.37037 uM
  SIMPL2 signal, MDM2/MDM4 (Fig. 4A): 155.514 and 142.28 and 150.579 and 141.083
[4]; RO-5963 1.11111 uM
  SIMPL2 signal, MDM2/MDM4 (Fig. 4A): 502.238 and 458.421 and 548.523 and 430.606
[4]; RO-5963 3.33333 uM
  SIMPL2 signal, MDM2/MDM4 (Fig. 4A): 934.354 and 877.9 and 842.009 and 825.259
[4]; RO-5963 10 uM
  SIMPL2 signal, MDM2/MDM4 (Fig. 4A): 374.451 and 365.777 and 368.394 and 378.937
